The target in test [1] is T1, SIK2 (Homo sapiens, UniProt Q9H0K1). The experiment in a line: SIK2 Enzymatic Assay Version 1 (ADP Glo). As to conditions: enzyme 0.6 nM, 160 μM ATP and 140 μM HDAC5tide (each 2× final concentration); 30 minutes pre-incubation, 4 hours; ADPGlo luminescence; read-out: SIK2 ADP Glo IC50 (μM) (Test Example 1). In kind it is biochemical. The essentials: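 Kinase activity read as ADP production by ADP-Glo luminescence, all steps at room temperature. Compound and SIK2 (0.6 nM, a 2× concentration) were preincubated 30 min; ATP-only wells lacking peptide were the negative control; depletion 40 min, detection ≥30 min.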
T1 sequence (Q9H0K1 whole entry, species assumed): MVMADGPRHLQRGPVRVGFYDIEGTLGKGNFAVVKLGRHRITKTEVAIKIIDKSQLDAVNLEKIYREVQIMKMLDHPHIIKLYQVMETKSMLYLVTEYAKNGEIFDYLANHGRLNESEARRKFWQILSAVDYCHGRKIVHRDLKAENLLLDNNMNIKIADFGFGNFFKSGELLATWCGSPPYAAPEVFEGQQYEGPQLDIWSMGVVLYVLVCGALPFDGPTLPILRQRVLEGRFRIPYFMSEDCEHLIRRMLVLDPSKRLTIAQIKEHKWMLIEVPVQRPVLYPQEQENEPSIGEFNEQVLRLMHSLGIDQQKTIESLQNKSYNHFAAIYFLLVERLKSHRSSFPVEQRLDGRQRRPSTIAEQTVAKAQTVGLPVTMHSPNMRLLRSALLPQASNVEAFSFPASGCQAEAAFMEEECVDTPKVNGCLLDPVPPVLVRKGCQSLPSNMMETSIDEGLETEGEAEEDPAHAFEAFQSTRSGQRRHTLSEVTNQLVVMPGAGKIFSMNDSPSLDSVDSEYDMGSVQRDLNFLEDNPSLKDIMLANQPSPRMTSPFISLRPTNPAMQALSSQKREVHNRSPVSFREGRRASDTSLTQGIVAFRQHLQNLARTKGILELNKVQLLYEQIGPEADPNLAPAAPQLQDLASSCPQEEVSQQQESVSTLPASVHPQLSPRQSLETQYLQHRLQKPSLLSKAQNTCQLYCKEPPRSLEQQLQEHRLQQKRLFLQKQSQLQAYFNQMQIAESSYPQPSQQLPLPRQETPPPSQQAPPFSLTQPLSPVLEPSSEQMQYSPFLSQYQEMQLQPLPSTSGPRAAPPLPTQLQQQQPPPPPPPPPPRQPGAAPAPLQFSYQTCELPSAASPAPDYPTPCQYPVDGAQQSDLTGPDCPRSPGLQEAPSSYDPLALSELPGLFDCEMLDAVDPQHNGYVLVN
In general terms: In ADP-Glo the light output rises with the ADP produced.

In test [2] the target is T1, SIK2. The test can be described thus: SIK2 Enzymatic Assay High Version 2 (High ATP). In kind it is biochemical. The essentials: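 At room temperature, enzyme (6 nM, 2× final) was preincubated with compound for 30 min, then 6 mM ATP and 400 μM HDAC5tide (both 2× final) were added for 2 h. ADP formed was measured by ADP-Glo Max (2 h reagent, 1 h detection) using luminescence.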

What is called IC50 is the point on the concentration scale where inhibition reaches its midpoint.

SMILES strings stand for the structures. Where only a bound is given, the exact number is not on record here.

Consider `CN1CC[C@@H](COc2cnc(Cl)cc2-c2ccn3nc(NC(=O)C4CC4)cc3c2)C1` [Example 490, N-[5-[2-chloro-5-[[(3R)-1-methylpyrrolidin-3-yl]methoxy]-4-pyridyl]pyrazolo[1,5-a]pyridin-2-yl]cyclopropanecarboxamide], for which the IC50 on SIK2 [1] was 0.0013 µM; against SIK2 [2] it was 17.9 nM.
In the same order, the values of `O=C(Nc1cc2cc(-c3cc(OC(F)F)ncc3OC[C@@H]3CNCCO3)ccn2n1)C1CC1` [Example 503, N-[5-[2-(difluoromethoxy)-5-[[(2S)-morpholin-2-yl]methoxy]-4-pyridyl]pyrazolo[1,5-a]pyridin-2-yl]cyclopropanecarboxamide] are 0.0038 µM and 68.2 nM.
In the same order, the values of `Cc1cc(-c2cn3cc(NC(=O)C4CC4)nc3cn2)c(OCC(C)(C)C#N)cn1` [Example 508, N-[6-[5-(2-cyano-2-methyl-propoxy)-2-methyl-4-pyridyl]imidazo[1,2-a]pyrazin-2-yl]cyclopropanecarboxamide] are 0.00366 µM and 53.7 nM.
In the case of `Cc1cc(-c2ccn3nc(NC(=O)C4CC4)cc3c2)c(OC[C@@H]2CCN(C)C2)cn1` [Example 509, N-[5-[2-methyl-5-[[(3R)-1-methylpyrrolidin-3-yl]methoxy]-4-pyridyl]pyrazolo[1,5-a]pyridin-2-yl]cyclopropanecarboxamide], the IC50 was 0.00321 µM on SIK2 [1] and 55.9 nM against SIK2 [2].
On the same counts, the results for `CN1[C@@H]2COC[C@H]1CC(Nc1cnc(C#N)cc1-c1ccn3nc(NC(=O)C4CC4)cc3c1)C2` (stereo partly drawn) [Example 565, N-[5-[2-cyano-5-[[(1R,5S)-9-methyl-3-oxa-9-azabicyclo[3.3.1]nonan-7-yl]amino]-4-pyridyl]pyrazolo[1,5-a]pyridin-2-yl]cyclopropanecarboxamide] are 0.00384 µM and 88.2 nM.
Take `Cn1ccc(Nc2cc3cc(-c4cc(C#N)ccc4OC[C@H]4CNCCO4)ccn3n2)n1` [Example 566, 3-[2-[(1-methylpyrazol-3-yl)amino]pyrazolo[1,5-a]pyridin-5-yl]-4-[[(2R)-morpholin-2-yl]methoxy]benzonitrile]: the half-maximal inhibitory concentration (IC50) at SIK2 [1] was found to be 0.00389 µM; against SIK2 [2], 101 nM.
In the same order, the values of `Cc1cc(-c2ccn3nc(Nc4ccccn4)cc3c2)c(OC2CN(C)C2)cn1` [Example 567, 5-[2-methyl-5-(1-methylazetidin-3-yl)oxy-4-pyridyl]-N-(2-pyridyl)pyrazolo[1,5-a]pyridin-2-amine] are 0.00757 µM and 251 nM.
In the same order, the values of `Cc1cc(-c2ccn3nc(Nc4cnn(C)c4)cc3c2)c(OC2CN(C)C2)cn1` [Example 568, 5-[2-methyl-5-(1-methylazetidin-3-yl)oxy-4-pyridyl]-N-(1-methylpyrazol-4-yl)pyrazolo[1,5-a]pyridin-2-amine] are 0.00471 µM and 93.3 nM.
In the same order, the values of `CCOc1cnc(C#N)cc1-c1ccn2nc(NC(=O)C3CC3)cc2c1` [Example 583, N-[5-(2-cyano-5-ethoxy-4-pyridyl)pyrazolo[1,5-a]pyridin-2-yl]cyclopropanecarboxamide] are 0.00412 µM and 61.1 nM.
For the molecule `N#Cc1cc(-c2ccn3nc(NC(=O)C4CC4)cc3c2)c(OCC2CC2)cn1` [Example 584, N-[5-[2-cyano-5-(cyclopropylmethoxy)-4-pyridyl]pyrazolo[1,5-a]pyridin-2-yl]cyclopropanecarboxamide], the 50% inhibitory concentration (IC50) at SIK2 [1] is 0.00253 µM; at SIK2 [2], 35.3 nM.
With `N#Cc1cc(-c2ccn3nc(NC(=O)C4CC4)cc3c2)c(OC[C@@H]2CCCNC2)cn1` [Example 585, N-[5-[2-cyano-5-[[(3R)-3-piperidyl]methoxy]-4-pyridyl]pyrazolo[1,5-a]pyridin-2-yl]cyclopropanecarboxamide], the results for the IC50 at SIK2 [1] and on SIK2 [2] were 0.00148 µM and 16.9 nM, respectively.
On the same counts, the results for `N#Cc1cc(-c2ccn3nc(NC(=O)C4CC4)cc3c2)c(OC[C@H]2CC[C@H](N)CC2)cn1` [Example 586, N-(5-(5-(((1r,4r)-4-aminocyclohexyl)methoxy)-2-cyanopyridin-4-yl)pyrazolo[1,5-a]pyridin-2-yl)cyclopropanecarboxamide] are 0.00095 µM and 8.63 nM.
In the same order, the values of `N#Cc1cc(-c2ccn3nc(NC(=O)C4CC4)cc3c2)c(OC2CC3(CNC3)C2)cn1` [Example 587, N-[5-[5-(6-azaspiro[3.3]heptan-2-yloxy)-2-cyano-4-pyridyl]pyrazolo[1,5-a]pyridin-2-yl]cyclopropanecarboxamide] are 0.00381 µM and 87 nM.
On the same counts, the results for `N#Cc1cc(-c2ccn3nc(NC(=O)C4CC4)cc3c2)c(OC[C@@H]2CCN(CC(F)(F)F)C2)cn1` [Example 588, N-[5-[2-cyano-5-[[(3R)-1-(2,2,2-trifluoroethyl)pyrrolidin-3-yl]methoxy]-4-pyridyl]pyrazolo[1,5-a]pyridin-2-yl]cyclopropanecarboxamide] are 0.00342 µM and 59.6 nM.
As for `N#Cc1cc(-c2ccn3nc(NC(=O)C4CC4)cc3c2)c(OC[C@@H]2CCN(C3CC3)C2)cn1` [Example 589, N-[5-[2-cyano-5-[[(3R)-1-cyclopropylpyrrolidin-3-yl]methoxy]-4-pyridyl]pyrazolo[1,5-a]pyridin-2-yl]cyclopropanecarboxamide], the IC50 at SIK2 [1] came out at 0.00625 µM; on SIK2 [2], 75.9 nM.
In the case of `N#Cc1cc(-c2ccn3nc(NC(=O)C4CC4)cc3c2)c(OC2CN(CC(F)(F)F)C2)cn1` [Example 590, N-[5-[2-cyano-5-[1-(2,2,2-trifluoroethyl)azetidin-3-yl]oxy-4-pyridyl]pyrazolo[1,5-a]pyridin-2-yl]cyclopropanecarboxamide], the values for the IC50 on SIK2 [1] and at SIK2 [2] were 0.00124 µM and 19.5 nM, respectively.
As to `N#Cc1cc(-c2ccn3nc(NC(=O)C4CC4)cc3c2)c(OC[C@H]2C[C@H](N)C2)cn1` [Example 591, N-(5-(5-(((1r,3r)-3-aminocyclobutyl)methoxy)-2-cyanopyridin-4-yl)pyrazolo[1,5-a]pyridin-2-yl)cyclopropanecarboxamide], the concentration for half-maximal inhibition (IC50) on SIK2 [1] came out at 0.000647 µM; against SIK2 [2], 7.9 nM.
On the same counts, the results for `N#Cc1cc(-c2ccn3nc(NC(=O)C4CC4)cc3c2)c(OC[C@H]2CNCCO2)cn1` [Example 592, N-[5-[2-cyano-5-[[(2R)-morpholin-2-yl]methoxy]-4-pyridyl]pyrazolo[1,5-a]pyridin-2-yl]cyclopropanecarboxamide] are 0.00486 µM and 120 nM.
In the same order, the values of `N#Cc1cc(-c2ccn3nc(NC(=O)C4CC4)cc3c2)c(OC[C@H]2CCCNC2)cn1` [Example 593, N-[5-[2-cyano-5-[[(3S)-3-piperidyl]methoxy]-4-pyridyl]pyrazolo[1,5-a]pyridin-2-yl]cyclopropanecarboxamide] are 0.00242 µM and 30.7 nM.
As for `N#Cc1cc(-c2ccn3nc(NC(=O)C4CC4)cc3c2)c(O[C@@H]2CCNC2)cn1` [Example 594, N-[5-[2-cyano-5-[(3R)-pyrrolidin-3-yl]oxy-4-pyridyl]pyrazolo[1,5-a]pyridin-2-yl]cyclopropanecarboxamide], the IC50 was 0.000627 µM at SIK2 [1] and 9.09 nM on SIK2 [2].
In the same order, the values of `N#CCN[C@H]1C[C@@H](COc2cnc(C#N)cc2-c2ccn3nc(NC(=O)C4CC4)cc3c2)C1` [Example 596, N-[5-[2-cyano-5-[[3-(cyanomethylamino)cyclobutyl]methoxy]-4-pyridyl]pyrazolo[1,5-a]pyridin-2-yl]cyclopropanecarboxamide] are 0.00125 µM and 14.6 nM.
On the same counts, the results for `N#Cc1cc(-c2ccn3nc(NC(=O)C4CC4)cc3c2)c(OC[C@H]2C[C@@H](NC3CC3)C2)cn1` [Example 597, N-[5-[2-cyano-5-[[3-(cyclopropylamino)cyclobutyl]methoxy]-4-pyridyl]pyrazolo[1,5-a]pyridin-2-yl]cyclopropanecarboxamide] are 0.00192 µM and 29.9 nM.
On the same counts, the results for `CCOC(=O)CN[C@H]1C[C@@H](COc2cnc(C#N)cc2-c2ccn3nc(NC(=O)C4CC4)cc3c2)C1` [Example 598, ethyl 2-[[3-[[6-cyano-4-[2-(cyclopropanecarbonylamino)pyrazolo[1,5-a]pyridin-5-yl]-3-pyridyl]oxymethyl]cyclobutyl]amino]acetate] are 0.0041 µM and 53.5 nM.
`Cc1cc(-c2ccn3nc(Nc4cc(C)nc(C)n4)cc3c2)c(OCC(C)(C)O)nn1` [Example 600, 1-[4-[2-[(2,6-dimethylpyrimidin-4-yl)amino]pyrazolo[1,5-a]pyridin-5-yl]-6-methyl-pyridazin-3-yl]oxy-2-methyl-propan-2-ol]: the values for the 50% inhibitory concentration (IC50) at SIK2 [1] and on SIK2 [2] were 0.0142 µM and 207 nM, respectively.
In the same order, the values of `Cc1cc(Nc2cc3cc(-c4cc(OC(C)C)ncc4OCC(C)(C)C#N)ccn3n2)nc(C)n1` [Example 663, 3-[[4-[2-[(2,6-dimethylpyrimidin-4-yl)amino]pyrazolo[1,5-a]pyridin-5-yl]-6-isopropoxy-3-pyridyl]oxy]-2,2-dimethyl-propanenitrile] are 0.000151 µM and under 0.838 nM.
On to `COc1cnccc1-c1ccn2nc(NC(=O)C3CC3)cc2c1` [Example 749, N-[5-(3-methoxy-4-pyridyl)pyrazolo[1,5-a]pyridin-2-yl]cyclopropanecarboxamide], for which the IC50 at SIK2 [1] was 0.0179 µM; on SIK2 [2] it was 821 nM.
In the same order, the values of `CCOc1cnc(C)cc1-c1ccn2nc(NC(=O)C3CC3)cc2c1` [Example 752, N-[5-(5-ethoxy-2-methyl-4-pyridyl)pyrazolo[1,5-a]pyridin-2-yl]cyclopropanecarboxamide] are 0.061 µM and 806 nM.

(Values after US20240158392A1 (Janssen Biotech, Inc., priority 2021, published 2024).)
